Assay results reported in patent US7449492B2, “Therapeutic agents—I” (priority 2000, dated 2008).

What was measured:
[1] = test system: MM96L human melanoma cells; test: Leukocyte killing with drug present, [3H]-thymidine labelling; assay type: cell-based; settings: 60 ng/mL with leukocytes, 48 hr; 100:1 ratio of effector:target cells
Method: (§1) Leukocytes obtained by lysis of human peripheral blood were added to 5000 MM96L human melanoma cells or 7000 neonatal foreskin fibroblasts per microtitre well at effector: target ratios of 1000, 100 and 10:1. Ing9 (60 ng/mL) was added and after 48 hr incubation the cultures were washed and labelled with [3H]-thymidine for 2 hr. […] Untreated leukocytes had no effect on cell survival.

[2] = test system: neonatal foreskin fibroblasts; test: as above; assay type: cell-based, human; settings: 60 ng/mL with leukocytes, 48 hr; 100:1 ratio of effector:target cells
Method: as §1

[3] = test system: neonatal foreskin fibroblasts; test: Killing by untreated leukocytes of drug-pretreated target cells; assay type: cell-based, human; settings: target cells treated with 60 ng/mL for 20 hr and washed before leukocytes; 100:1 ratio of effector:target cells
Method: as §1, with “The target cells had been treated with 60 ng/mL PEP008 for 20 hr beforehand,” for “Ing9 (60 ng/mL) was added”, “washed and the medium replaced before the leukocytes were added. After” for “after”, “incubation with the leukocytes” for “incubation”

[4] = test system: peripheral blood mononuclear cells (PBMCs); test: Phagocytosis with fluorescent beads; assay type: cell-based; settings: whole heparinized blood, 30 min at 37° C.
Method: Phagocytosis by peripheral blood mononuclear cells (PBMCs) was assayed (Steinkamp et al., 1982) using 1 μm Fluoresbrite™ yellow-green fluorescent latex spheres (Polysciences, Inc., Warrington, Pa.). A sample of whole, heparinized blood was treated with drug and 5×10E7 fluorescent latex beads in 10 μL of PBS added per mL of suspension. Cells were incubated and maintained in suspension for 30 min by means of a shaker platform at 37° C. The stimulated and non-stimulated samples were then lysed to isolate PBMCs. The PBMCs were run on the flow cytometer measuring FITC (excitation at 488 nm, emission at 525±20 nm), gated for fluorescence (phagocytosed spheres) and light scatter (cell size).

[5] = test system: MM96L human melanoma cells; test: Killing by untreated leukocytes of drug-pretreated target cells; assay type: cell-based; settings: target cells treated with 60 ng/mL for 20 hr and washed before leukocytes; 100:1 ratio of effector:target cells
Method: as §1, with “The target cells had been treated with 60 ng/mL PEP008 for 20 hr beforehand,” for “Ing9 (60 ng/mL) was added”, “washed and the medium replaced before the leukocytes were added. After” for “after”, “incubation with the leukocytes” for “incubation”

**Q.** For `C/C=C(/C)C(=O)O[C@H]1C(C)=C[C@]23C(=O)[C@@H](C=C(COC(C)=O)[C@@H](O)[C@]12O)[C@H]1[C@@H](C[C@H]3C)C1(C)C` [PEP008, 20-O-acetyl-ingenol-3-angelate], which “survival of melanoma cells” value [1] is on record?
**A.** 9%

**Q.** And the “survival of normal fibroblasts” value [2]?
**A.** 100%

**Q.** And the “survival of normal fibroblasts” value [3]?
**A.** 100%

**Q.** What about the “phagocytosis of fluorescent latex spheres in PBMCs” value [4] of the same compound?
**A.** stimulate phagocytosis

**Q.** And the “survival of melanoma cells” value [5]?
**A.** 12%
